Patent US20100105655A1, “NOVEL COMPOUNDS 515” (ASTRAZENECA AB, priority 2008, published 2010)

Each compound was assayed against T1, IGFR kinase (Homo sapiens, UniProt P08069) (assay: Enzyme assay (c), IGFR kinase, Caliper LabChip). Conditions: 30 nM IGFR kinase, 6 uM ATP, 3 uM peptide mix; read-out: IGFR IC50.
T1 construct: purchased Millipore
Assay type: biochemical
Protocol: For Echo dosing the solvent was 100% DMSO. A master plate was prepared with 40 ul of 10 mM stock solution of the test compound in DMSO in quadrant 1 of a Labcyte 384 well plate. A 1 in 100 dilution was made from quadrant 1 into quadrant 2 by removing 0.4 ul and adding it to 39.6 ul of DMSO. Subsequent 1 in 100 dilutions were made into quadrant 3 from quadrant 2 and quadrant 4 from quadrant 3.
Multiple 2.5 nl droplets were dispensed from each quadrant of the master plate to generate the dose range that was required in the test. The dose range most commonly used was as follows: 100 uM, 30 uM, 10 uM, 3 uM, 1 uM, 0.3 uM, 0.1 uM, 0.03 uM, 0.01 uM, 0.003 uM, 0.001 uM, 0.0001 uM. Each well was backfilled with dimethyl sulfoxide (DMSO) to a total volume of 120 nl, such that when the enzyme and substrate mix was added the final DMSO concentration was 1%.
DMSO was added to max control wells as 120 nl, minimum control wells were treated with 120 nl of compound at a concentration that inhibited the enzyme activity 100%.
Integration of the substrate and product peaks was carried out using Caliper LabChip software and IC50 curves were calculated using Origin™ software.

T1 sequence (P08069 31-1367): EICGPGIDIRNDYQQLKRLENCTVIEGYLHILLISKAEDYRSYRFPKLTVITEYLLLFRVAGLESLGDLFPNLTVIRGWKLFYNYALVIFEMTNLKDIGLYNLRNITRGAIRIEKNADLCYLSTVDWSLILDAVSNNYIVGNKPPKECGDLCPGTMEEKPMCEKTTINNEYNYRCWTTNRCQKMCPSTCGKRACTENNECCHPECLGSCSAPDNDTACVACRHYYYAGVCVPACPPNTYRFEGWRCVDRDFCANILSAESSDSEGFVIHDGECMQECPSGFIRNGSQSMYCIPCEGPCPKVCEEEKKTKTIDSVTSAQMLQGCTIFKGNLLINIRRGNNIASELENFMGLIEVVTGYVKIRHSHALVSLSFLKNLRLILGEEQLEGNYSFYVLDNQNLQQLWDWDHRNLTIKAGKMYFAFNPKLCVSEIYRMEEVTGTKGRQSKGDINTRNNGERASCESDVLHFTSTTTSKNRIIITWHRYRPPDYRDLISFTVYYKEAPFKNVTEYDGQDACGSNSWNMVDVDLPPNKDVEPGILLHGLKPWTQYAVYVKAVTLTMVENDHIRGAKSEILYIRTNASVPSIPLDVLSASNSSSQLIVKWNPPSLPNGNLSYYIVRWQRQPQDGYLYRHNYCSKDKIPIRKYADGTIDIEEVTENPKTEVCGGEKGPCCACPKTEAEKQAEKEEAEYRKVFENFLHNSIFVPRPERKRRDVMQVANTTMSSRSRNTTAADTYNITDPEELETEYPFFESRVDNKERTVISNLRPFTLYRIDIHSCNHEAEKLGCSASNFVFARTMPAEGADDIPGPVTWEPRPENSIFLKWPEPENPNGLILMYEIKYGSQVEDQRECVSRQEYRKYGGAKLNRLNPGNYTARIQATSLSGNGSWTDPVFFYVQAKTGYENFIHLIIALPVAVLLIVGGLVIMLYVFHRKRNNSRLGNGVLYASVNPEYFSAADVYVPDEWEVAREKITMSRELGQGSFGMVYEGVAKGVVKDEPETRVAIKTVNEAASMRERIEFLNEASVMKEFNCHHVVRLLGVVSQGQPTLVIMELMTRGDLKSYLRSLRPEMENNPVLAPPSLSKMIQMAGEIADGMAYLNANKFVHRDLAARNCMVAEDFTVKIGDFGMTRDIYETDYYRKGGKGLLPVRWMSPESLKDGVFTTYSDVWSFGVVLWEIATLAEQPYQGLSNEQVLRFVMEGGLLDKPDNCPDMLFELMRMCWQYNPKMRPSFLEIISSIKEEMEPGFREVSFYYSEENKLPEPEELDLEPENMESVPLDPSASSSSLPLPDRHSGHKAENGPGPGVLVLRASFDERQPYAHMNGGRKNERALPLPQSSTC

Row | SMILES | IC50 [µM]
1 | COc1cc(C(=O)N2C[C@@H]3C[C@H]2CN3C)ccc1Nc1ncc(Cl)c(-c2cnc3ccccn23)n1 [Example 31, [4-[(5-chloro-4-imidazo[1,2-a]pyridin-3-yl-pyrimidin-2-yl)amino]-3-methoxy-phenyl]-[(1S,4S)-5-methyl-2,5-diazabicyclo[2.2.1]heptan-2-yl]methanone] | 0.021
2 | COc1cc(C(=O)N2CCN(CCO)CC2)ccc1Nc1ncc(Cl)c(-c2cnc3ccccn23)n1 [Example 32, [4-[(5-chloro-4-imidazo[1,2-a]pyridin-3-yl-pyrimidin-2-yl)amino]-3-methoxy-phenyl]-[4-(2-hydroxyethyl)piperazin-1-yl]methanone] | 0.019
3 | COc1ccc(N2CC3CNCC(C2)O3)cc1Nc1ncc(Cl)c(-c2cnc3c(F)cccn23)n1 [Example 192, 5-chloro-4-(8-fluoroimidazo[1,2-a]pyridin-3-yl)-N-[2-methoxy-5-(9-oxa-3,7-diazabicyclo[3.3.1]nonan-7-yl)phenyl]pyrimidin-2-amine] | 0.53
4 | COc1cc(N2CCN(C(C)(C)CO)CC2)ccc1Nc1ncc(C)c(-c2cnc3ccccn23)n1 [Example 229, 2-[4-[4-[(4-imidazo[1,2-a]pyridin-3-yl-5-methyl-pyrimidin-2-yl)amino]-3-methoxy-phenyl]piperazin-1-yl]-2-methyl-propan-1-ol] | 0.02
5 | COc1cc(C2CCN(C(=O)[C@@H](C)O)CC2)ccc1Nc1ncc(Cl)c(-c2cnn3ccccc23)n1 [Example 138, (2R)-1-[4-[4-[(5-chloro-4-pyrazolo[1,5-a]pyridin-3-yl-pyrimidin-2-yl)amino]-3-methoxy-phenyl]-1-piperidyl]-2-hydroxy-propan-1-one] | 0.003
6 | COc1ccc(N2CC[C@H](O)C2)cc1Nc1ncc(Cl)c(-c2cnc3ccccn23)n1 [Example 3.5, (3S)-1-[3-[(5-chloro-4-imidazo[1,2-a]pyridin-3-yl-pyrimidin-2-yl)amino]-4-methoxy-phenyl]pyrrolidin-3-ol] | 0.041
7 | COc1cc(N2CCN(C(C)=O)CC2)ccc1Nc1ncc(Cl)c(-c2cnc3cc(CN(C)C)ccn23)n1 [Example 185, 1-[4-[4-[[5-chloro-4-[7-(dimethylaminomethyl)imidazo[1,2-a]pyridin-3-yl]pyrimidin-2-yl]amino]-3-methoxy-phenyl]piperazin-1-yl]ethanone] | 0.17
8 | COc1cc(OC[C@@H]2CCCN2)ccc1Nc1ncc(Cl)c(-c2cnc3ccccn23)n1 [Example 6.2, 5-chloro-4-imidazo[1,2-a]pyridin-3-yl-N-[2-methoxy-4-[[(2S)-pyrrolidin-2-yl]methoxy]phenyl]pyrimidin-2-amine] | 0.014
9 | COCCN1CCN(c2ccc(Nc3ncc(F)c(-c4cnc5ccccn45)n3)c(OC)c2)CC1 [Example 82, 5-fluoro-4-imidazo[1,2-a]pyridin-3-yl-N-[2-methoxy-4-[4-(2-methoxyethyl)piperazin-1-yl]phenyl]pyrimidin-2-amine] | 0.043
10 | COc1cc(C2CCOCC2)ccc1Nc1ncc(F)c(-c2cnc3ccccn23)n1 [Example 113, 5-fluoro-4-imidazo[1,2-a]pyridin-3-yl-N-(2-methoxy-4-tetrahydropyran-4-yl-phenyl)pyrimidin-2-amine] | 0.033
11 | COc1cc(N2CCN(CCO)CC2)ccc1Nc1ncc(C#N)c(-c2cnc3ccccn23)n1 [Example 116, 2-[[4-[4-(2-hydroxyethyl)piperazin-1-yl]-2-methoxy-phenyl]amino]-4-imidazo[1,2-a]pyridin-3-yl-pyrimidine-5-carbonitrile] | 0.013
12 | COc1cc(C(CO)CNC(C)=O)ccc1Nc1ncc(Cl)c(-c2cnc3ccccn23)n1 (centres unmarked) [Example 276, N-[2-[4-[(5-chloro-4-imidazo[1,2-a]pyridin-3-yl-pyrimidin-2-yl)amino]-3-methoxy-phenyl]-3-hydroxy-propyl]acetamide] | 0.015
13 | COc1cc(CC(=O)N2CC[C@H](O)C2)ccc1Nc1ncc(Cl)c(-c2cnc3ccccn23)n1 [Example 38, 2-[4-[(5-chloro-4-imidazo[1,2-a]pyridin-3-yl-pyrimidin-2-yl)amino]-3-methoxy-phenyl]-1-[(3S)-3-hydroxypyrrolidin-1-yl]ethanone] | 0.044
14 | COc1cc(N2CCN(CCO)CC2)ccc1Nc1ncc(Cl)c(-c2cnc3ccc(F)cn23)n1 [Example 263, 2-[4-[4-[[5-chloro-4-(6-fluoroimidazo[1,2-a]pyridin-3-yl)pyrimidin-2-yl]amino]-3-methoxy-phenyl]piperazin-1-yl]ethanol] | 0.007
15 | COc1cc(N2CCN(C(C)=O)CC2)ccc1Nc1ncc(C#N)c(-c2cnc3ccccn23)n1 [Example 118, 2-[[4-(4-acetylpiperazin-1-yl)-2-methoxy-phenyl]amino]-4-imidazo[1,2-a]pyridin-3-yl-pyrimidine-5-carbonitrile] | 0.092
16 | COc1cc(N2CCN(C[C@@H](C)O)CC2)ccc1Nc1ncc(C)c(-c2cnc3ccccn23)n1 [Example 105, (2R)-1-[4-[4-[(4-imidazo[1,2-a]pyridin-3-yl-5-methyl-pyrimidin-2-yl)amino]-3-methoxy-phenyl]piperazin-1-yl]propan-2-ol] | 0.026
17 | COc1ccc(N2CCNCC2)cc1Nc1ncc(C)c(-c2cnc3c(F)cccn23)n1 [Example 199, 4-(8-fluoroimidazo[1,2-a]pyridin-3-yl)-N-(2-methoxy-5-piperazin-1-yl-phenyl)-5-methyl-pyrimidin-2-amine] | 0.11
18 | COc1cc(N2CCN(C[C@H](C)O)CC2)ccc1Nc1ncc(F)c(-c2cnc3ccccn23)n1 [Example 89, (2S)-1-[4-[4-[(5-fluoro-4-imidazo[1,2-a]pyridin-3-yl-pyrimidin-2-yl)amino]-3-methoxy-phenyl]piperazin-1-yl]propan-2-ol] | 0.034
19 | COc1cc(C(=O)N2C[C@@H]3C[C@H]2CN3)ccc1Nc1ncc(Cl)c(-c2cnc3ccccn23)n1 [Example 29, [4-[(5-chloro-4-imidazo[1,2-a]pyridin-3-yl-pyrimidin-2-yl)amino]-3-methoxy-phenyl]-[(1S,4S)-2,5-diazabicyclo[2.2.1]heptan-5-yl]methanone] | 0.017
20 | COc1cc(N2CCN(C[C@H](C)O)CC2)ccc1Nc1ncc(C)c(-c2cnc3ccccn23)n1 [Example 104, (2S)-1-[4-[4-[(4-imidazo[1,2-a]pyridin-3-yl-5-methyl-pyrimidin-2-yl)amino]-3-methoxy-phenyl]piperazin-1-yl]propan-2-ol] | 0.029
21 | COc1cc(N2CCCOCC2)ccc1Nc1ncc(F)c(-c2cnc3ccccn23)n1 [Example 84, 5-fluoro-4-imidazo[1,2-a]pyridin-3-yl-N-[2-methoxy-4-(1,4-oxazepan-4-yl)phenyl]pyrimidin-2-amine] | 0.179

Continued, values first:

Row | IC50 [µM] | SMILES
22 | 0.006 | COc1cc(C2CCN(C(=O)[C@H](C)OC)CC2)ccc1Nc1ncc(Cl)c(-c2cnc3ccccn23)n1 [Example 28.3, (2S)-1-[4-[4-[(5-chloro-4-imidazo[1,2-a]pyridin-3-yl-pyrimidin-2-yl)amino]-3-methoxy-phenyl]-1-piperidyl]-2-methoxy-propan-1-one]
23 | 0.009 | COc1cc(N2CCN(C(C)=O)CC2)ccc1Nc1ncc(Cl)c(-c2cnc3ccc(Br)cn23)n1 [Example 126.1, 1-[4-[4-[[4-(6-bromoimidazo[1,2-a]pyridin-3-yl)-5-chloropyrimidin-2-yl]amino]-3-methoxyphenyl]piperazin-1-yl]ethanone]
24 | 0.037 | COc1cc(CN(C)CCO)ccc1Nc1ncc(Cl)c(-c2cnc3ccccn23)n1 [Example 21.2, 2-[[4-[(5-chloro-4-imidazo[1,2-a]pyridin-3-yl-pyrimidin-2-yl)amino]-3-methoxy-phenyl]methyl-methyl-amino]ethanol]
25 | 0.011 | COc1cc(N2CCN(C(=O)C(C)(C)O)CC2)ccc1Nc1ncc(Cl)c(-c2cnc3ccccn23)n1 [Example 25.6, 1-[4-[4-[(5-chloro-4-imidazo[1,2-a]pyridin-3-yl-pyrimidin-2-yl)amino]-3-methoxy-phenyl]piperazin-1-yl]-2-hydroxy-2-methyl-propan-1-one]
26 | 0.006 | COc1cc(N2CCN(C(=O)[C@@H](N)C(C)C)CC2)ccc1Nc1ncc(Cl)c(-c2cnc3ccccn23)n1 [Example 24.6, (2S)-2-amino-1-[4-[4-[(5-chloro-4-imidazo[1,2-a]pyridin-3-yl-pyrimidin-2-yl)amino]-3-methoxy-phenyl]piperazin-1-yl]-3-methyl-butan-1-one]
27 | 0.006 | COc1cc(N2CCN(C(=O)N3CCNCC3)CC2)ccc1Nc1ncc(Cl)c(-c2cnc3ccccn23)n1 [Example 47.3, [4-[4-[(5-chloro-4-imidazo[1,2-a]pyridin-3-yl-pyrimidin-2-yl)amino]-3-methoxy-phenyl]piperazin-1-yl]-piperazin-1-yl-methanone]
28 | 0.068 | COc1cc(C=O)ccc1Nc1ncc(Cl)c(-c2cnc3ccccn23)n1 [Example 20A, 4-(5-chloro-4-(imidazo[1,2-a]pyridin-3-yl)pyrimidin-2-ylamino)-3-methoxybenzaldehyde]
29 | 0.021 | CCc1ccn2c(-c3nc(Nc4ccc(N5CCN(C(C)=O)CC5)cc4OC)ncc3Cl)cnc2c1 [Example 126.8, 1-[4-[4-[[5-chloro-4-(7-ethylimidazo[1,2-a]pyridin-3-yl)pyrimidin-2-yl]amino]-3-methoxyphenyl]piperazin-1-yl]ethanone]
